Laboratory results published in patent publication US20240390315A1, “NUTRITIONAL COMPOSITIONS” (MITOCHOLINE Ltd, priority 2021, published 2024).

Experiments:
[1] = plasma, healthy adult males, single oral beverage supplying 550 mg choline, after overnight fasting; ranking among the three supplements
Excerpt: Study: a randomized cross-over study on 12 adult male subjects.
Subjects: 12 healthy adult male subjects (3 placebo and 9 test supplement (each supplement group-3 subjects)) who are between 30 and 60 years of age.
Duration: One-day oral administration of a choline supplement was followed by 1 week of wash-out before the start of administration of the next (different) choline supplement.
Subjects took each of the three supplements in randomized sequence with interspersed wash-out periods of 1 week. […] The beverages were consumed in the morning after overnight fasting. Blood (2.7 ml EDTA) was taken before intake (−0.1 h) and at 0.5, 1, 1.5, 2, 3, 4, 5, and 6 h after intake. Collected blood was immediately centrifuged at 1000×g at room temperature for 10 min. Plasma was separated and stored at −80° C. until analysis. […] Equipment for analysis: TSQ Quantum Discovery MAX tandem mass spectrometer, a Finnigan Surveyor Autosampler Plus, and a Finnigan Surveyor MS Pump Plus (Thermo Fisher Scientific, Dreieich, Germany), and choline, betaine were separated on a Polaris Si-A® column at 40° C. and the components were analyzed.

[2] = target: neuronal insulin receptor (Homo sapiens, UniProt P06213); conditions: cited from earlier work
isolated mitochondria = conditions: rat liver mitochondria incubated 15 min at 37° C. with test substrate, LC-MS/MS; compared with choline chloride
Method: Livers from male Wistar rats were homogenized using a Teflon®-glass Potter-Elvehjem homogenizer in the isolation medium containing 0.25 M sucrose, 0.02 M Tris-HCl, 0.001 M EDTA, pH 7.2. The homogenates prepared in this way were centrifuged at 600 g for 10 min at 4° C. to precipitate nuclei and cell debris. Then the supernatant was separated from the sediment and subjected to centrifugation at 8500 g for 10 min at 4° C. to precipitate mitochondria.

Chain of neuronal insulin receptor (P06213 28-1382): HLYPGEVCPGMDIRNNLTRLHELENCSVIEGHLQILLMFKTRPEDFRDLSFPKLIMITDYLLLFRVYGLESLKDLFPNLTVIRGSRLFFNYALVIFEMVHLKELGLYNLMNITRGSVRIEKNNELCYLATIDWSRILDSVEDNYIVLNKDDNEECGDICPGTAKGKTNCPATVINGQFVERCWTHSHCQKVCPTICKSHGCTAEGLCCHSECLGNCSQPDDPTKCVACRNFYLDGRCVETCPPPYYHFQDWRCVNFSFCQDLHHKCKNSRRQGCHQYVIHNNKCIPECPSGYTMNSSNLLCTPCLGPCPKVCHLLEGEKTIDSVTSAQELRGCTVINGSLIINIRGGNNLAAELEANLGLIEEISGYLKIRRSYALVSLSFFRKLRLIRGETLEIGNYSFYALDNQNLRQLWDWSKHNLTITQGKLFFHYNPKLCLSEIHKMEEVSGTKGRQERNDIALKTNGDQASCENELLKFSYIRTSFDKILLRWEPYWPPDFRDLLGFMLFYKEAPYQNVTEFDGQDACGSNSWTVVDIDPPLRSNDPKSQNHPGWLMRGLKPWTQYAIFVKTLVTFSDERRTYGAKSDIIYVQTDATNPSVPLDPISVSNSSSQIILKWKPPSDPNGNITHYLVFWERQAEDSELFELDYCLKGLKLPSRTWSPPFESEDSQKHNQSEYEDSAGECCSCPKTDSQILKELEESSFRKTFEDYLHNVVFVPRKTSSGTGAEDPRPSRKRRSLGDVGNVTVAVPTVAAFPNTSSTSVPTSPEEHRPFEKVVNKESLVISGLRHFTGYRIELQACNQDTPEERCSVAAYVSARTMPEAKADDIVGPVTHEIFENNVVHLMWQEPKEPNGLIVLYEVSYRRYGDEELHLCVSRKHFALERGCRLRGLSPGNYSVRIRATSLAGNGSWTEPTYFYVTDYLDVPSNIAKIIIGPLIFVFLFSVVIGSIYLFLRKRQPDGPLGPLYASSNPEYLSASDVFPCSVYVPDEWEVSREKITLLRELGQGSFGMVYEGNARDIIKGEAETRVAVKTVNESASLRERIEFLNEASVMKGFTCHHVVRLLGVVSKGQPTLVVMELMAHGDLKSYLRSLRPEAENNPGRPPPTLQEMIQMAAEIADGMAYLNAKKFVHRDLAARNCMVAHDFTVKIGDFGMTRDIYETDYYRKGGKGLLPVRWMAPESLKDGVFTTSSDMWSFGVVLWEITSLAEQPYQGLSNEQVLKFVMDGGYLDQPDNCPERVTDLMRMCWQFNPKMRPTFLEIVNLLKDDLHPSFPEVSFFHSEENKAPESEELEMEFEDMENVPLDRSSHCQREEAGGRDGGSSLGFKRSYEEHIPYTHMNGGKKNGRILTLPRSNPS

Compound | AUC (0-6 h) of betaine concentrations [1] | sensitization of the neuronal insulin receptor [2] | betaine yield (concentration of betaine in the incubation medium) (isolated mitochondria)
C[N+](C)(C)CCO.O=C([O-])C(O)C(O)C(=O)O (stereo not shown) [choline bitartrate] | dicholine succinate>choline bitartrate>choline chloride |  | 
C[N+](C)(C)CCO.[Cl-] [choline chloride] | lowest |  | 
dicholine succinate [DiSu] |  | potent sensitizer | higher betaine yields
